The values that follow come from patent publication US9423396B2, “Bodipy structure fluorescence probes for diverse biological applications” (National University of Singapore, priority 2011, dated 2016).

A short description of this series: Spectroscopic measurements (absorption, emission, quantum yield, extinction coefficient). The note with it: BDNCA library; for Abs: absorption; for Flu-Abs: difference emission minus absorption; for ε: extinction coefficient, in M-1 cm-1 (unit assumed); for Flu: fluorescence emission. It counts as physicochemical.

Take `CC(=O)Nc1ccc(/C=C/C2=[N+]3C(=C(c4ccc(NC(=O)CCl)cc4)c4cccn4[B-]3(F)F)C(C)=C2)cc1` [BDNCA-111]: the “Qunt. Yield” value amounted to 0.04, the Abs turned out to be 570 nm, the Flu-Abs amounted to 29 and the ε was 18,947. The Flu is 599.

Take `CC(=O)OCCN(CCOC(C)=O)c1ccc(/C=C/C2=[N+]3C(=C(c4ccc(NC(=O)CCl)cc4)c4cccn4[B-]3(F)F)C(C)=C2)cc1` [BDNCA-114]: the “Qunt. Yield” value is on record as “weak”, the Abs was 608 nm, the ε is recorded as 42,288 and the Flu entry is recorded as “weak”.

In the case of `CC1=CC(/C=C/c2cc(Cl)ccc2O)=[N+]2C1=C(c1ccc(NC(=O)CCl)cc1)c1cccn1[B-]2(F)F` [BDNCA-121], the “Qunt. Yield” value is recorded as 0.06, the Abs was found to be 564 nm, the Flu-Abs was found to be 21 and the ε was 39,817. The compound further displayed a Flu of 585.

As to `CCOc1cccc(/C=C/C2=[N+]3C(=C(c4ccc(NC(=O)CCl)cc4)c4cccn4[B-]3(F)F)C(C)=C2)c1O` [BDNCA-126], the “Qunt. Yield” value came out at 0.01, the Abs worked out at 563 nm, the Flu-Abs is on record as 15 and the ε is 37,071. Besides, the Flu was found to be 578.

Consider `Cc1cc(/C=C/c2ccccc2OCC(=O)O)n2c1C(c1ccc(NC(=O)CCl)cc1)=C1C=CC=[N+]1[B-]2(F)F` [BDNCA-128], for which the “Qunt. Yield” value is 0.02, the Abs amounted to 559 nm, the Flu-Abs is on record as 25 and the ε is given as 14,554. The Flu was determined as 584.

Take `CC1=CC(/C=C/c2ccc(O)c([N+](=O)[O-])c2)=[N+]2C1=C(c1ccc(NC(=O)CCl)cc1)c1cccn1[B-]2(F)F` [BDNCA-131]: the “Qunt. Yield” value was “weak”, the Abs came to 643 nm, the ε is 18,124 and the Flu entry is “weak”.

With `COc1ccc(/C=C/C2=[N+]3C(=C(c4ccc(NC(=O)CCl)cc4)c4cccn4[B-]3(F)F)C(C)=C2)cc1O` [BDNCA-132], the “Qunt. Yield” value came out at 0.02, the Abs was found to be 569 nm, the Flu-Abs is given as 30 and the ε is 36,796. Moreover, the Flu was 599.

With `CC1=CC(/C=C/c2[nH]cnc2C)=[N+]2C1=C(c1ccc(NC(=O)CCl)cc1)c1cccn1[B-]2(F)F` [BDNCA-134], the “Qunt. Yield” value is listed as “weak”, the Abs amounted to 566 nm, the ε is 12,082 and the Flu result is recorded as “weak”.

Regarding `CC1=CC(/C=C/c2ccc(C)o2)=[N+]2C1=C(c1ccc(NC(=O)CCl)cc1)c1cccn1[B-]2(F)F` [BDNCA-135], the “Qunt. Yield” value turned out to be 0.07, the Abs was 577 nm, the Flu-Abs was 41 and the ε is listed as 37,346. For the same compound, the Flu is listed as 618.

For the compound `CC1=CC(/C=C/c2ccc3ccccc3c2)=[N+]2C1=C(c1ccc(NC(=O)CCl)cc1)c1cccn1[B-]2(F)F` [BDNCA-137], the “Qunt. Yield” value was found to be 0.10, the Abs was 564 nm, the Flu-Abs is 20 and the ε was 43,387. The same compound yielded a Flu of 584.

In the case of `CC1=CC(/C=C/c2ccc3c(c2)OCO3)=[N+]2C1=C(c1ccc(NC(=O)CCl)cc1)c1cccn1[B-]2(F)F` [BDNCA-139], the “Qunt. Yield” value was 0.09, the Abs stood at 568 nm, the Flu-Abs is recorded as 39 and the ε was 35,423. Also, the Flu amounted to 607.

With `CCCOc1ccc(/C=C/c2cc(C)c3n2[B-](F)(F)[N+]2=CC=CC2=C3c2ccc(NC(=O)CCl)cc2)cc1` [BDNCA-140], the “Qunt. Yield” value amounted to 0.07, the Abs came out at 566 nm, the Flu-Abs was found to be 32 and the ε was 27,185. The Flu came to 598.

As for `CC1=CC(/C=C/c2ccccc2C)=[N+]2C1=C(c1ccc(NC(=O)CCl)cc1)c1cccn1[B-]2(F)F` [BDNCA-143], the “Qunt. Yield” value worked out at 0.13, the Abs turned out to be 555 nm, the Flu-Abs amounted to 22 and the ε is on record as 50,801. The same compound registered a Flu of 577.

As for `COc1cc(OC)c(OC)cc1/C=C/C1=[N+]2C(=C(c3ccc(NC(=O)CCl)cc3)c3cccn3[B-]2(F)F)C(C)=C1` [BDNCA-144], the “Qunt. Yield” value is “weak”, the Abs was found to be 585 nm, the ε is recorded as 62,609 and the Flu result is listed as “weak”.

As to `CC1=CC(/C=C/c2ccc(Cl)cc2Cl)=[N+]2C1=C(c1ccc(NC(=O)CCl)cc1)c1cccn1[B-]2(F)F` [BDNCA-147], the “Qunt. Yield” value was found to be 0.07, the Abs worked out at 557 nm, the Flu-Abs amounted to 21 and the ε is given as 23,616. For the same compound, the Flu amounted to 578.

In the case of `CC1=CC(/C=C/c2ccc(O)cc2)=[N+]2C1=C(c1ccc(NC(=O)CCl)cc1)c1cccn1[B-]2(F)F` [BDNCA-153], the “Qunt. Yield” value came to 0.05, the Abs was 569 nm, the Flu-Abs is given as 37 and the ε was 23,341. The Flu is 606.

Turning to `CC1=CC(/C=C/c2ccc(OCCCN(C)C)cc2)=[N+]2C1=C(c1ccc(NC(=O)CCl)cc1)c1cccn1[B-]2(F)F` [BDNCA-163], the “Qunt. Yield” value was found to be 0.04, the Abs stood at 566 nm, the Flu-Abs is 29 and the ε was 24,165. In addition, the Flu is listed as 595.

On to `CC1=CC(/C=C/c2ccc(C(C)(C)C)cc2)=[N+]2C1=C(c1ccc(NC(=O)CCl)cc1)c1cccn1[B-]2(F)F` [BDNCA-177], for which the “Qunt. Yield” value is recorded as 0.15, the Abs stood at 558 nm, the Flu-Abs stood at 23 and the ε is reported as 73,867. This compound also gave a Flu of 581.

Take `COc1ccc(Oc2ccc(/C=C/c3cc(C)c4n3[B-](F)(F)[N+]3=CC=CC3=C4c3ccc(NC(=O)CCl)cc3)cc2)cc1` [BDNCA-178]: the “Qunt. Yield” value stood at 0.09, the Abs worked out at 563 nm, the Flu-Abs came out at 26 and the ε is recorded as 61,785. Also, the Flu is on record as 589.

In the case of `COC(=O)c1ccc(-c2ccc(/C=C/C3=[N+]4C(=C(c5ccc(NC(=O)CCl)cc5)c5cccn5[B-]4(F)F)C(C)=C3)cc2)cc1` [BDNCA-179], the “Qunt. Yield” value stood at 0.14, the Abs came out at 566 nm, the Flu-Abs came out at 23 and the ε is listed as 52,998. Also, the Flu was 589.

Consider `CC1=CC(/C=C/c2ccc(Cl)c(Cl)c2)=[N+]2C1=C(c1ccc(NC(=O)CCl)cc1)c1cccn1[B-]2(F)F` [BDNCA-182], for which the “Qunt. Yield” value was determined as 0.08, the Abs was 557 nm, the Flu-Abs is 18 and the ε is 37,620. The same compound gave a Flu of 575.

In the case of `CC1=CC(/C=C/c2c[nH]c3ccc(Br)cc23)=[N+]2C1=C(c1ccc(NC(=O)CCl)cc1)c1cccn1[B-]2(F)F` [BDNCA-185], the “Qunt. Yield” value came out at 0.06, the Abs was 581 nm, the Flu-Abs is on record as 65 and the ε was 29,931. The same compound had a Flu of 646.

`COc1cccc(/C=C/C2=[N+]3C(=C(c4ccc(NC(=O)CCl)cc4)c4cccn4[B-]3(F)F)C(C)=C2)c1` [BDNCA-186]: the “Qunt. Yield” value came to 0.14, the Abs is 556 nm, the Flu-Abs amounted to 20 and the ε is given as 61,510. Further, the Flu came to 576.

As to `Cc1cc(/C=C/c2ccccc2C(=O)O)n2c1C(c1ccc(NC(=O)CCl)cc1)=C1C=CC=[N+]1[B-]2(F)F` [BDNCA-191], the “Qunt. Yield” value is recorded as 0.06, the Abs came to 556 nm, the Flu-Abs worked out at 18 and the ε is recorded as 24,714. Besides, the Flu is 574.

`COc1ccc(/C=C/c2cc(C)c3n2[B-](F)(F)[N+]2=CC=CC2=C3c2ccc(NC(=O)CCl)cc2)c(O)c1` [BDNCA-192]: the “Qunt. Yield” value was found to be 0.03, the Abs was found to be 577 nm, the Flu-Abs came to 53 and the ε is reported as 21,693. This compound also gave a Flu of 630.

Turning to `COc1ccc(-c2ccc(/C=C/C3=[N+]4C(=C(c5ccc(NC(=O)CCl)cc5)c5cccn5[B-]4(F)F)C(C)=C3)o2)cc1Cl` [BDNCA-195], the “Qunt. Yield” value turned out to be 0.01, the Abs amounted to 605 nm, the ε is 21,968 and the Flu turned out to be 681.

Turning to `COc1ccccc1/C=C/c1cc(C)c2n1[B-](F)(F)[N+]1=CC=CC1=C2c1ccc(NC(=O)CCl)cc1` [BDNCA-198], the “Qunt. Yield” value turned out to be 0.15, the Abs was 561 nm, the Flu-Abs worked out at 26 and the ε was 76,064. The Flu is 587.

As to `CC1=CC(/C=C/c2ccc(-c3cncnc3)cc2)=[N+]2C1=C(c1ccc(NC(=O)CCl)cc1)c1cccn1[B-]2(F)F` [BDNCA-199], the “Qunt. Yield” value is reported as 0.15, the Abs was found to be 563 nm, the Flu-Abs worked out at 20 and the ε is 59,314. Further, the Flu turned out to be 583.

With `C=CCOc1ccccc1/C=C/C1=[N+]2C(=C(c3ccc(NC(=O)CCl)cc3)c3cccn3[B-]2(F)F)C(C)=C1` [BDNCA-202], the “Qunt. Yield” value was found to be 0.13, the Abs turned out to be 561 nm, the Flu-Abs was found to be 24 and the ε is 57,666. The Flu worked out at 585.

For the compound `COc1ccc(/C=C/c2cc(C)c3n2[B-](F)(F)[N+]2=CC=CC2=C3c2ccc(NC(=O)CCl)cc2)c(OC)c1` [BDNCA-206], the “Qunt. Yield” value is given as 0.13, the Abs was determined as 574 nm, the Flu-Abs was 44 and the ε is reported as 44,485. This compound also gave a Flu of 618.
